Residues, ends and D or L forms follow the SMILES beside them.
What was measured:
3 × Tg-AD mice = test: Side effects and safety during chronic dietary treatment; format: in vivo, mouse; settings: 60 nmol P021/g feed in diet
Description: At approximately 3 months of age, the animals were divided into three groups: one group of 3 × Tg-AD-P021 (n = 32) treated with 60 nmol P021/g feed in the diet; a second group of 3 × Tg-AD-vh (n = 35) treated with the same diet but without P021; and a third group of WT (n = 41) treated with the same diet but without P021. P021 was formulated by Research Diets (New Brunswick, NJ, USA). Food consumption was recorded every 2 weeks and body weight every month. The average mouse food consumption was ~2.7 g feed/day.

[1] = parameters: method as in PMID 25046994; settings: over 30 min; cited from earlier work
[2] = parameters: method as in PMID 25046994; settings: over 120 min; cited from earlier work
[3] = parameters: method as in PMID 25046994; settings: cited from earlier work
[4] = parameters: method as in PMID 25046994; settings: cited from earlier work; remark: listed apart in the source

CC(=O)N[C@@H](CC(=O)O)C(=O)NCC(=O)NCC(=O)N[C@@H](CC(C)C)C(=O)NC12CC3CC(C1)CC(C(N)=O)(C3)C2 [Peptide P021] (HELM PEPTIDE1{[ac].D.G.G.L.[NC(=O)C12CC3CC(CC(N[*:1])(C3)C1)C2]}$$$$V2.0)
side effects or safety issues (3 × Tg-AD mice; preclinical study of almost 2 years): did not show any severe side effects or safety issues
weight loss, tumors, or signs of pain (3 × Tg-AD mice; treatment for around 18 months): did not show any weight loss, tumors, or signs of pain
stability in artificial gastric juice [1]: > 95%
stability in intestinal fluid [2]: ~ 100%
plasma stability [3]: > 3 h
blood–brain barrier permeability [4]: blood–brain barrier permeable
